Data from patent US20220324835A1 (Nurix Therapeutics, Inc., priority 2018, published 2022).
Where a name gives a salt, the structure may show the parent alone.

How the values were obtained:
Cbl-b = Cbl-b (Homo sapiens, UniProt Q13191); assay: Cbl-b activity assay (Cbl-b inhibition assay), TR-FRET of Cbl-b interaction with UbcH5B-Ub; assay type: biochemical; details: assay buffer with 100 mM NaCl, 60 nM Src kinase; read-out: Cbl-b activity IC50
Method in brief: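 Compound-treated Cbl-b was incubated 1.5 h with Src kinase (60 nM final; 30 nM for asterisked values, which also used 50 mM instead of 100 mM NaCl), 1 mM ATP and 5 mM MgCl2. Binding to fluorescent Ub-loaded UbcH5B (C85K mutant) was then read by TR-FRET after 1 h more.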

T-cell [1] = assay: CD25 cell surface staining on T-cells stimulated with anti-CD3 antibody alone (Biological Example 2); assay type: cell-based, human; details: T-cell, read-out: CD25 staining Anti-CD3 stimulation; for fold induction at 1 µM: 1 μM Cbl-b inhibitor; for fold induction at 8 µM: 8 μM Cbl-b inhibitor
Cbl-b (residues 36-427) = Cbl-b (residues 36-427) (Homo sapiens, UniProt Q13191); assay: Cbl-b binding assay (SPR, Biacore T200); details: 20° C., 1:1 binding model
Method in brief: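 NeutrAvidin capture chip, 20° C; 50 s injections at 50 μl/min, 90-180 s dissociation; 0.3 M NaCl regeneration. Asterisked column: 50 mM NaCl buffer and 30 nM Src kinase in place of 100 mM NaCl and 60 nM Src kinase. 1:1 fit.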

T-cell [2] = assay: IL-2 secretion from T-cells stimulated with anti-CD3 antibody alone (Biological Example 2); assay type: cell-based, human; details: T-cell, read-out: IL-2 secretion Anti-CD3 stimulation; for fold induction at 1 µM: 1 μM Cbl-b inhibitor; for fold induction at 8 µM: 8 μM Cbl-b inhibitor
[3] = fold change over baseline, primary human total T-cells
[4] = Homo sapiens, fold change over baseline (anti-CD3/anti-CD28 stimulated T-cells without inhibitor)

Sequence of Cbl-b (Q13191 36-427): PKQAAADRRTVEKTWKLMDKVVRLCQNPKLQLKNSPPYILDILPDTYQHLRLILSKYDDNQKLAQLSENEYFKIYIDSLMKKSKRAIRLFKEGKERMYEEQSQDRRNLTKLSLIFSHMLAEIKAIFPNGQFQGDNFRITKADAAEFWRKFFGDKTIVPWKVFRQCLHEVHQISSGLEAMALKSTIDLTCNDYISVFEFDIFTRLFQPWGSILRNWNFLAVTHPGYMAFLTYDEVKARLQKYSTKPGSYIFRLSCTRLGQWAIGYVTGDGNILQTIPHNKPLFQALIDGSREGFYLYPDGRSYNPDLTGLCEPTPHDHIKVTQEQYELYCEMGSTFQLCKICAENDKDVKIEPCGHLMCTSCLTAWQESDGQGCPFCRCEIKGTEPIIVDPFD
Sequence of Cbl-b (residues 36-427) (Q13191 36-427): as above

SMILES | IC50 (Cbl-b) [nM] | fold induction at 1 µM (T-cell [1]; [3]) | fold induction at 8 µM (T-cell [1]; [3]) | Kd (Cbl-b (residues 36-427)) [nM] | fold induction at 1 µM (T-cell [2]; [3]) | fold induction at 8 µM (T-cell [2]; [3]) | fold induction at 1 µM (T-cell [1]; [4]) | fold induction at 1 µM (T-cell [2]; [4])
Cn1cnnc1CC1(c2cccc(NC(=O)c3nc4c(C(F)(F)F)cccc4[nH]3)c2)COC1 [Compound 335, N-(3-{3-[(4-methyl-1,2,4-triazol-3-yl)methyl]oxetan-3-yl}phenyl)-4-(trifluoromethyl)-1H-1,3-benzodiazole-2-carboxamide] | < 100 | 0.801 to 1 | > 1 | < 100 | 0.101 to 0.15 | > 0.201 | – | –
C[C@H](Sc1nncn1C)c1cccc(NC(=O)c2cccc(C3CC3)n2)c1 [Compound 72, (S)-6-cyclopropyl-N-(3-(1-((4-methyl-4H-1,2,4-triazol-3-yl)thio)ethyl)phenyl)picolinamide] | < 100 | < 0.6 | 0.801 to 1 | 100 to 300 | 0.051 to 0.1 | 0.151 to 0.2 | – | –
CC(C)Nc1cc([C@H](C)Cc2nncn2C)cc(N2Cc3c(cccc3C(F)(F)F)C2=O)n1 [Compound 353, 2-{4-[(2R)-1-(4-methyl-4H-1,2,4-triazol-3-yl)propan-2-yl]-6-[(propan-2-yl)amino]pyridin-2-yl}-4-(trifluoromethyl)-2,3-dihydro-1H-isoindol-1-one] | < 100 | 0.801 to 1 | > 1 | < 100 | 0.101 to 0.15 | > 0.201 | – | –
CC1CCc2c1n[nH]c2C(=O)Nc1cccc([C@H](C)Cc2nncn2C)c1 (stereo partly drawn) [Compound 323, 6-Methyl-N-(3-((R)-1-(4-methyl-4H-1,2,4-triazol-3-yl)propan-2-yl)phenyl)-2,4,5,6-tetrahydrocyclopenta[c]pyrazole-3-carboxamide] | 100 to 300 | 0.601 to 0.8 | > 1 | 100 to 300 | 0.101 to 0.15 | > 0.201 | – | –
C[C@H](Cc1nncn1C)c1cccc(N2Cc3c(cc(C(=O)N4CC(O)C4)cc3C(F)(F)F)C2=O)c1 [Compound 276, (R)-6-(3-hydroxyazetidine-1-carbonyl)-2-(3-(1-(4-methyl-4H-1,2,4-triazol-3-yl)propan-2-yl)phenyl)-4-(trifluoromethyl)isoindolin-1-one] | < 100 | 0.801 to 1 | > 1 | 301 to 1000 | 0.051 to 0.1 | 0.151 to 0.2 | – | –
C[C@H](Cc1nncn1C)c1cccc(NC(=O)c2cc(C3CC3)nc(C3CC3)n2)c1 [Compound 193, (R)-2,6-dicyclopropyl-N-(3-(1-(4-methyl-4H-1,2,4-triazol-3-yl)propan-2-yl)phenyl)pyrimidine-4-carboxamide] | < 100 | > 1 | > 1 | < 100 | > 0.201 | > 0.201 | – | –
C[C@H](Cc1nncn1C)c1cccc(NC(=O)c2cc(O[C@@H]3CC[C@@H](O)C3)ccn2)c1 (relative stereo) [Compound 205, trans-4-(3-hydroxycyclopentyloxy)-N-(3-((R)-1-(4-methyl-4H-1,2,4-triazol-3-yl)propan-2-yl)phenyl)picolinamide] | < 100 | 0.801 to 1 | > 1 | 100 to 300 | 0.051 to 0.1 | 0.101 to 0.15 | – | –
Cn1cnnc1CC1(c2cccc(N3Cc4c(cc(CN5CCC(C)(F)CC5)cc4C(F)(F)F)C3=O)c2)COC1 [Example 620, 6-((4-fluoro-4-methylpiperidin-1-yl)methyl)-2-(3-(3-((4-methyl-4H-1,2,4-triazol-3-yl)methyl)oxetan-3-yl)phenyl)-4-(trifluoromethyl)isoindolin-1-one] | < 100 | – | – | < 100 | – | – | > 1 | > 0.201
Cn1cnnc1CC(C)(C)c1cccc(N2Cc3c(cccc3C(F)(F)F)C2=O)c1 [Compound 300, 2-(3-(2-methyl-1-(4-methyl-4H-1,2,4-triazol-3-yl)propan-2-yl)phenyl)-4-(trifluoromethyl)isoindolin-1-one] | < 100 | 0.801 to 1 | > 1 | 100 to 300 | > 0.201 | > 0.201 | – | –
C[C@H](Cc1nncn1C)c1cccc(NC(=O)c2cc(C(=O)N3CC[C@H](O)C3)cc(C(F)(F)F)n2)c1 [Compound 220, 4-((S)-3-hydroxypyrrolidine-1-carbonyl)-N-(3-((R)-1-(4-methyl-4H-1,2,4-triazol-3-yl)propan-2-yl)phenyl)-6-(trifluoromethyl)picolinamide] | < 100 | > 1 | > 1 | < 100 | > 0.201 | > 0.201 | – | –
CCNc1cc([C@H](C)Cc2nncn2C)cc(N2Cc3c(cccc3C(F)(F)F)C2=O)n1 [Compound 360, (R)-2-(6-(ethylamino)-4-(1-(4-methyl-4H-1,2,4-triazol-3-yl)propan-2-yl)pyridin-2-yl)-4-(trifluoromethyl)isoindolin-1-one] | < 100 | > 1 | > 1 | < 100 | > 0.201 | > 0.201 | – | –
C[C@H](Sc1nncn1C)c1cccc(NC(=O)c2cc3cc(OCC(=O)NCCN)ccc3cn2)c1 [Compound 311, 6-[2-(2-aminoethylamino)-2-oxo-ethoxy]-N-[3-[(1S)-1-[(4-methyl-1,2,4-triazol-3-yl)sulfanyl]ethyl]phenyl]isoquinoline-3-carboxamide hydrochloride] | 100 to 300 | 0.601 to 0.8 | 0.601 to 0.8 | 100 to 300 | < 0.05 | < 0.05 | – | –
Cc1cc(C(=O)Nc2cccc([C@@H](C)Cc3nncn3C)c2)nc(C2CC2)n1 [Compound 325, (S)-2-Cyclopropyl-6-methyl-N-(3-(1-(4-methyl-4H-1,2,4-triazol-3-yl)propan-2-yl)phenyl)pyrimidine-4-carboxamide] | 100 to 300 | 0.801 to 1 | > 1 | 301 to 1000 | 0.051 to 0.1 | 0.101 to 0.15 | – | –
C[C@H](Cc1nncn1C)c1cccc(N2Cc3c(cc(C(=O)N4CC[C@H](O)C4)cc3C3CC3)C2=O)c1 [Compound 277, 4-cyclopropyl-6-((S)-3-hydroxypyrrolidine-1-carbonyl)-2-(3-((R)-1-(4-methyl-4H-1,2,4-triazol-3-yl)propan-2-yl)phenyl)isoindolin-1-one] | < 100 | 0.801 to 1 | > 1 | 100 to 300 | 0.051 to 0.1 | 0.101 to 0.15 | – | –
Cn1cnnc1[C@@H](F)C1(c2cccc(N3Cc4c(cc(CN5CCC(F)CC5)cc4C(F)(F)F)C3=O)c2)COC1 [Example 670a, (S)-2-(3-(3-(fluoro(4-methyl-4H-1,2,4-triazol-3-yl)methyl)oxetan-3-yl)phenyl)-6-((4-fluoropiperidin-1-yl)methyl)-4-(trifluoromethyl)isoindolin-1-one] | < 100 | – | – | < 100 | – | – | > 1 | > 0.201
C[C@H](Cc1nncn1C)c1cccc(NC(=O)c2nc3c(C(F)(F)F)cccc3[nH]2)c1 [Compound 196, N-[3-[(1R)-1-methyl-2-(4-methyl-1,2,4-triazol-3-yl)ethyl]phenyl]-4-(trifluoromethyl)-1H-benzimidazole-2-carboxamide] | < 100 | > 1 | > 1 | 100 to 300 | > 0.201 | > 0.201 | – | –
C[C@H](Sc1nncn1C)c1cccc(NC(=O)c2ccc(C#N)c(C3CC3)n2)c1 [Compound 92, 5-cyano-6-cyclopropyl-N-[3-[(1S)-1-[(4-methyl-1,2,4-triazol-3-yl)sulfanyl]ethyl]phenyl]pyridine-2-carboxamide] | < 100 | 0.601 to 0.8 | > 1 | 100 to 300 | < 0.05 | 0.101 to 0.15 | – | –
Cc1cc(C(=O)Nc2cccc(C3(Cc4nncn4C)COC3)c2)nc(C2CC2)n1 [Compound 336, 2-cyclopropyl-6-methyl-N-(3-(3-((4-methyl-4H-1,2,4-triazol-3-yl)methyl)oxetan-3-yl)phenyl)pyrimidine-4-carboxamide] | < 100 | > 1 | > 1 | < 100 | > 0.201 | > 0.201 | – | –
C[C@H](Sc1nncn1C)c1cccc(NC(=O)c2ccnc(C3CC3)n2)c1 [Compound 76, 2-cyclopropyl-A-[3-[(1S)-1-[(4-methyl-1,2,4-triazol-3-yl)sulfanyl]ethyl]phenyl]pyrimidine-4-carboxamide] | < 100 | 0.601 to 0.8 | > 1 | 100 to 300 | < 0.05 | 0.051 to 0.1 | – | –
